The nature of series [1]: Particle size, PDI, Zeta and entrapment efficiency of each LNP@mRNA. The format is physicochemical. Particulars: for Entrapment efficiency (%) / PDI / Particle size (nm) / Zeta (mV): luciferase mRNA; for particle size of the LNP@mRNA (in words): LNP@mRNA with cholesterol, DSPC, PEG-DMG (Example 25), compared among compounds 1-8. Here is the method: Compounds 1-8 were respectively dissolved in ethanol together with cholesterol, DSPC, PEG-DMG at a molar ratio of 50:38.5:10:1.5, luciferase mRNA was dissolved in a 50 mM citric acid buffered saline solution with a pH of 4.0, a volume ratio of the two solutions was 1:3, two phases were rapidly mixed by using microfluidics and a buffer environment was replaced into PBS with a pH of 7.4 by using dialysis or a tangential flow, so as to remove ethanol, and eight LNP@mRNAs were respectively prepared.
Thus, it can be seen that the entrapment efficiency to the nucleic acid drug by the compound provided by the present invention is high, and, using this compound as a carrier can improve the in-vivo delivery efficiency of the nucleic acid drug.
Compounds 13, and 14 and cholesterol, DOPC, and PEG-DMG were dissolved in ethanol at a molar ratio of 50:38.5:10:1.5, luciferase mRNA was dissolved in a 50 mM citric acid buffered saline solution with a pH of 4.0, a volume ratio of the two solutions was 1:3, two phases were mixed rapidly by using microfluidics and a buffer environment was replaced into PBS with a pH of 7.4 by using dialysis or a tangential flow, so as to remove ethanol, and two LNP@mRNAs were respectively prepared.

A further series concerns mice. As to the kind of experiment: Fluorescence intensity and organ distribution in mice 6 hours after injection of luciferase LNP@mRNA. The class given is in vivo. As to conditions: mouse, after 6 hours; for organ distribution of mRNA expression: intramuscular injection. How it is done: LNP@mRNAs prepared were respectively injected into a mouse body via a caudal vein or muscle, and after 6 hours, the fluorescence intensity and organ distribution in mice were tested. […] Therefore, a lipid compound with a specific structure can be chosen as a lipid carrier based on an organ in which the nucleic acid drug needs to be enriched.
LNP@mRNAs prepared were respectively injected into a mouse body via a caudal vein or muscle, and after 6 hours, the fluorescence intensity and organ distribution in mice were tested.

Series [2] is described as follows: Zeta electric potentials of LNP@mRNA under different pHs. The format is physicochemical. As to conditions: Example 26 LNP (cholesterol, DOPC, PEG-DMG), FIG. 7.
Setting [3] is: LNP@mRNA of compound:cholesterol:DSPC:PEG-DMG 50:38.5:10:1.5 molar, PBS pH 7.4 (Example 25).
Where [4] appears, read: LNP@mRNA of compound:cholesterol:DOPC:PEG-DMG 50:38.5:10:1.5 molar, PBS pH 7.4 (Example 26).

Structures are written as SMILES.

With `CCCCCCCCC(CCCCCC)C(=O)OCCCCOC(=O)CCN(CCO)CCC(=O)OCCCCOC(=O)C(CCCCCC)CCCCCCCC` (stereo not drawn) [Compound 1], in series [1] (setting [3]), the “Entrapment efficiency (%)” value came to 87%, the PDI stood at 0.06, the “Particle size (nm)” value is reported as 95 nm and the “Zeta (mV)” value was −9 mV. The “particle size of the LNP@mRNA (in words)” value in series [1] is on record as “small”.

With `CCCCCCCCC(CCCCCC)C(=O)OCCCCOC(=O)CCN(CCCO)CCC(=O)OCCCCOC(=O)C(CCCCCC)CCCCCCCC` (stereo not drawn) [Compound 2], in series [1] (setting [3]), the “Entrapment efficiency (%)” value is 86%, the PDI came out at 0.07, the “Particle size (nm)” value worked out at 68 nm and the “Zeta (mV)” value was −14 mV. Moreover, the “particle size of the LNP@mRNA (in words)” value in series [1] is “small”.

`CCCCCCCCC(CCCCCC)C(=O)OCCCCOC(=O)CCN(CCCCO)CCC(=O)OCCCCOC(=O)C(CCCCCC)CCCCCCCC` (stereo not drawn) [Compound 3]: in series [1] (setting [3]), the “Entrapment efficiency (%)” value was found to be 86%, the PDI was determined as 0.07, the “Particle size (nm)” value is 76 nm and the “Zeta (mV)” value is −15 mV. The “particle size of the LNP@mRNA (in words)” value in series [1] is reported as “small”.

On to `CCCCCCCCC(CCCCCC)C(=O)OCCCCOC(=O)CCN(CCCCCO)CCC(=O)OCCCCOC(=O)C(CCCCCC)CCCCCCCC` (stereo not drawn) [Compound 4], for which, in series [1] (setting [3]), the “Entrapment efficiency (%)” value is 82%, the PDI worked out at 0.09, the “Particle size (nm)” value amounted to 77 nm and the “Zeta (mV)” value is recorded as −12 mV. Besides, the “particle size of the LNP@mRNA (in words)” value in series [1] was “small”.

As for `CCCCCCC(CCCC)C(=O)OCCCCOC(=O)CCN(CCO)CCC(=O)OCCCCOC(=O)C(CCCC)CCCCCC` (stereo not drawn) [Compound 5], in series [1] (setting [3]), the “Entrapment efficiency (%)” value is 80%, the PDI was determined as 0.10, the “Particle size (nm)” value was determined as 114 nm and the “Zeta (mV)” value is given as −13 mV.

For `CCCCCCC(CCCC)C(=O)OCCCCOC(=O)CCN(CCCO)CCC(=O)OCCCCOC(=O)C(CCCC)CCCCCC` (stereo not drawn) [Compound 6], in series [1] (setting [3]), the “Entrapment efficiency (%)” value is on record as 72%, the PDI is 0.06, the “Particle size (nm)” value was 125 nm and the “Zeta (mV)” value was −12 mV.

As for `CCCCCCC(CCCC)C(=O)OCCCCOC(=O)CCN(CCCCO)CCC(=O)OCCCCOC(=O)C(CCCC)CCCCCC` (stereo not drawn) [Compound 7], in series [1] (setting [3]), the “Entrapment efficiency (%)” value is 82%, the PDI is recorded as 0.05, the “Particle size (nm)” value came to 116 nm and the “Zeta (mV)” value is reported as −18 mV. In the series on mice (Example 25 LNP (DSPC), comparison among compounds 1-8, FIG. 1), the “maximum fluorescence of intramuscular injection of LNP@mRNA (effect)” value is listed as “better”. For the same compound, the “organ distribution of mRNA expression” value in the series with mice (Example 25 LNP (DSPC), FIG. 2 and 3) is listed as “manly expressed in spleen”.

As to `CCCCCCC(CCCC)C(=O)OCCCCOC(=O)CCN(CCCCCO)CCC(=O)OCCCCOC(=O)C(CCCC)CCCCCC` (stereo not drawn) [Compound 8], in series [1] (setting [3]), the “Entrapment efficiency (%)” value is 82%, the PDI amounted to 0.07, the “Particle size (nm)” value is given as 124 nm and the “Zeta (mV)” value was −12 mV.

For the compound `CCCCCCC(CCCC)C(=O)OCCCCOC(=O)CCN(CCCn1ccnc1)CCC(=O)OCCCCOC(=O)C(CCCC)CCCCCC` (stereo not drawn) [Compound 13], in series [1] (setting [4]), the “Entrapment efficiency (%)” value was 85%, the PDI came to 0.03, the “Particle size (nm)” value is given as 156 nm and the “Zeta (mV)” value is given as −19 mV. The “maximum fluorescence of intramuscular injection of LNP@mRNA (effect)” value in the series with mice (Example 26 LNP (DOPC), comparison of compounds 13 and 14, FIG. 4) is reported as “better”. The “Zeta electric potential of the LNP@mRNA” value in series [2] (pH about 2) is on record as “strong positive electricity”. Further, in series [2] (pH close to 5), the “Zeta electric potential of the LNP@mRNA” value was “electric neutrality”. Moreover, the “Zeta electric potential of the LNP@mRNA” value in series [2] (pH greater than 8) was “strong electronegativity”.

In the case of `CCCCCCCCC(CCCCCC)C(=O)OCCCCOC(=O)CCN(CCCn1ccnc1)CCC(=O)OCCCCOC(=O)C(CCCCCC)CCCCCCCC` (stereo not drawn) [Compound 14], in series [1] (setting [4]), the “Entrapment efficiency (%)” value turned out to be 87%, the PDI was found to be 0.07, the “Particle size (nm)” value amounted to 122 nm and the “Zeta (mV)” value is given as −11 mV. In addition, the “organ distribution of mRNA expression” value with mice (Example 26 LNP (DOPC), FIG. 5 and 6) is “mainly expressed in spleen”.
